The supplement of paper PMC10307832

What was measured:
Test in all cases: relative viability (nuclei count vs DMSO), 5 days (fraction); higher = more cells survive
AGI-6780 + Pemetrexed = compound: O=C(Nc1cccc(C(F)(F)F)c1)Nc1cc(S(=O)(=O)NC2CC2)ccc1-c1ccsc1 [AGI-6780] + Nc1nc2[nH]cc(CCc3ccc(C(=O)N[C@@H](CCC(=O)O)C(=O)O)cc3)c2c(=O)[nH]1 [Pemetrexed] (partner 0.2 µM)
In short: (§1)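 Lung cancer cell lines were seeded in 1536-well plates and dosed by pin tool the next day, with either a single drug or a fixed anchor-drug dose combined with five library-drug doses (not always all listed) spaced in √10 steps. Five days later, one step fixed the cells and stained their nuclei (final 0.05% Triton X-100, 1% formaldehyde, 1 ug/ml Hoechst), and nuclei were counted on 4× images. Relative viability is the nuclei count in treated wells divided by the count in vehicle wells, and each value is the median of duplicate plates.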

AGI-6780 + AZD7762 = compound: O=C(Nc1cccc(C(F)(F)F)c1)Nc1cc(S(=O)(=O)NC2CC2)ccc1-c1ccsc1 [AGI-6780] + NC(=O)Nc1cc(-c2cccc(F)c2)sc1C(=O)N[C@H]1CCCNC1 [AZD7762] (partner 0.2 µM)
In short: as §1

AGI-6780 + OSI-027 = compound: O=C(Nc1cccc(C(F)(F)F)c1)Nc1cc(S(=O)(=O)NC2CC2)ccc1-c1ccsc1 [AGI-6780] + COc1cccc2cc(-c3nc([C@H]4CC[C@H](C(=O)O)CC4)n4ncnc(N)c34)[nH]c12 [OSI-027] (partner 0.5 µM)
In short: as §1

AGI-6780 + Foretinib = compound: O=C(Nc1cccc(C(F)(F)F)c1)Nc1cc(S(=O)(=O)NC2CC2)ccc1-c1ccsc1 [AGI-6780] + COc1cc2c(Oc3ccc(NC(=O)C4(C(=O)Nc5ccc(F)cc5)CC4)cc3F)ccnc2cc1OCCCN1CCOCC1 [Foretinib] (partner 0.25 µM)
In short: as §1

Cell Line | relative viability (AGI-6780 + Pemetrexed; first compound 0.08 µM) | relative viability (AGI-6780 + Pemetrexed; first compound 0.253 µM) | relative viability (AGI-6780 + Pemetrexed; first compound 0.8 µM) | relative viability (AGI-6780 + Pemetrexed; first compound 8 µM) | relative viability (AGI-6780 + AZD7762; first compound 0.08 µM) | relative viability (AGI-6780 + AZD7762; first compound 0.253 µM) | relative viability (AGI-6780 + AZD7762; first compound 0.8 µM) | relative viability (AGI-6780 + AZD7762; first compound 8 µM) | relative viability (AGI-6780 + OSI-027; first compound 0.08 µM) | relative viability (AGI-6780 + OSI-027; first compound 0.253 µM) | relative viability (AGI-6780 + OSI-027; first compound 0.8 µM) | relative viability (AGI-6780 + OSI-027; first compound 8 µM) | relative viability (AGI-6780 + Foretinib; first compound 0.08 µM) | relative viability (AGI-6780 + Foretinib; first compound 0.253 µM) | relative viability (AGI-6780 + Foretinib; first compound 0.8 µM) | relative viability (AGI-6780 + Foretinib; first compound 8 µM) | relative viability (AGI-6780 + Pemetrexed; first compound 2.53 µM) | relative viability (AGI-6780 + AZD7762; first compound 2.53 µM) | relative viability (AGI-6780 + OSI-027; first compound 2.53 µM) | relative viability (AGI-6780 + Foretinib; first compound 2.53 µM)
NCI-H1944 | 0.642 | 0.627 | 0.611 | 0.684 | 0.538 | 0.516 | 0.515 | 0.55 | 0.414 | 0.466 | 0.461 | 0.425 | 1.03 | 0.885 | 0.93 | 0.869 | – | – | – | –
HCC-15 | 0.227 | 0.245 | 0.204 | 0.207 | 1.18 | 1.32 | 1.34 | 1.25 | 0.743 | 0.763 | 0.783 | 0.725 | 1.1 | 1.03 | 1.1 | 0.968 | 0.215 | 1.43 | 0.458 | 0.871
NCI-H1395 | 0.779 | 0.975 | 0.945 | 0.843 | 0.366 | 0.4 | 0.412 | 0.387 | 0.632 | 0.846 | 0.674 | 0.662 | 0.917 | 0.986 | 0.979 | 0.931 | 0.729 | 0.428 | 0.53 | 0.901
NCI-H2170 | 0.285 | 0.267 | 0.289 | 0.272 | 0.803 | 0.904 | 0.987 | 0.827 | 0.694 | 0.762 | 0.768 | 0.733 | 0.994 | 0.978 | 1.1 | 0.984 | – | – | 0.596 | 0.928
